Measured values published in patent US20110008475A1, “USE OF AN EMULSION OF MINT OIL OR OF L-CARVONE FOR THE FUNGICIDAL TREATMENT OF FRUIT, VEGETABLES OR PLANTS” (priority 2007, published 2011).

Test system: Peronospora brassicae (cabbage mildew)
Assay: Effect of L-carvone on cabbage mildew (infected cabbages treated after inoculation)
Format: in vivo
Conditions: cabbages infected with Peronospora brassicae, treated rapidly after inoculation; L-carvone at a minimal concentration of 1%; 21 days; FIG. 1
Text: Cabbages were infected with Peronospora brassicae (cabbage mildew) then treated rapidly after inoculation with L-carvone or Aliette.

## C=C(C)C1CC=C(C)C(=O)C1 [L-carvone, 2-methyl-5-(1-methylethenyl)-2-cyclohexen-1-one]
  control of the infection by cabbage mildew: able to control the infection effectively for 21 days
